{
  "source": "patent US7597904B2",
  "about": "“Metalloproteinase inhibitory agent” (Nestec S.A., priority 2004, dated 2009)",
  "key": {"HT-29 cells [1]": {"tested_on": "HT-29 cells", "experiment": "Proliferation assay of HT-29 cells with caseinate hydrolysates and fractions (neutral red, OD 540 nm)", "assay_type": "cell-based, human", "protocol": "Culture of Human Intestinal Epithelial Cells (IECs) and Proliferation Assay\n• Human colonic adenocarcinoma cell line HT29 (ATCC: HTB-38) from the American Type Culture Collection (ATCC, Manassas, Va.). • DMEM, high glucose (4.5 g/l), with stable glutamine (BioConcept, AMIMED, Allschwil, Switzerland)\nUndifferentiated cells (passages 45-78) were maintained in glucose-containing DMEM supplemented with 10% FCS at 37° C. in a 5% CO2/air incubator. Culture medium was changed every two days until the cell monolayers reached 50% confluence. For stimulation assays, HT-29 cells were plated at 1.2*10^4 cells/well in 96-well flat-bottom plates. After incubation for 4 days, the amount of cells present in the wells before incubation with the samples was assessed adding neutral red solution in 4 wells and incubating the plate for 45 min. The HT-29 cells were then washed twice with serum-free media (inclusive the wells with neutral red solution). The wells colored with neutral red remained from now on free of any media.\nHT-29 cells were then incubated 24 hours respectively in the presence of 80 μg (hydrolysed) sodium caseinate samples in 200 μl DMEM, in 200 μl serum-free medium (blank), in 200 μl medium with serum (positive control) or in 0.9% saline solution (negative control). […] The dye was finally extracted with 100 μl of an extraction solution and the optical density measured at 540 nm. The optical density measured correlates with the number of cells present in the wells.\nThe proliferation was calculated by the difference in absorbance between the cells having been incubated 24 hours with sodium caseinate samples, with serum-free medium, with medium containing serum or with 0.9% saline solution and the cells before incubation.\nThe difference in absorbance ΔA540 from the blank (cells incubated with serum-free medium) was normalized. The results were then expressed as percentage with respect to the blank. • Culture medium with serum: DMEM was supplemented with 10% decomplemented FCS and 1% Penicillin-Streptomycin. […]"}, "HT-29 cells [2]": {"tested_on": "HT-29 cells", "experiment": "Lactate dehydrogenase cytotoxicity test", "assay_type": "cell-based, human", "conditions": "Table 4; HT-29, LDH released, 24 hours incubation", "text": "Lactate Dehydrogenase Cytotoxicity Test\nCell viability was rigorously measured according the manufacturer's recommendations (Roche Diagnostics). The test is based on the measurement of lactate dehydrogenase (LDH) activity released from the cytosol of damaged cells in the supernatant.\nMost current assays for measuring cytotoxicity are based on alterations of plasma membrane permeability and the consequent release of cytoplasmic enzymes or the uptake of dyes, normally excluded by viable cells. We here chose to measure the lactate dehydrogenase (LDH) activity released from damaged cells."}},
  "data": [
    {"substance": "sodium caseinate", "values": [
      {"measurement": "antiproliferative activity (in words)", "setting": "HT-29 cells [1]; HT-29 cells", "value": "no activity"},
      {"measurement": "% prolif (percentage of OD at 540 nm with respect to the control (−serum))", "setting": "HT-29 cells [1]; Table 2, HT-29, 24 hours incubation, 80 μg sample in 200 μl DMEM", "value": "93 +/− 12%"},
      {"measurement": "% prolif (percentage of OD at 540 nm with respect to the control (−serum))", "setting": "HT-29 cells [1]; Table 3, HT-29, active fraction with or without heat / enzyme treatment (alcalase, proteinase A)", "value": "93 +/− 7%"},
      {"measurement": "cytotoxic potential, percentage of OD at 490 nm with respect to the control (lysate); row head % prolif", "setting": "HT-29 cells [2]", "value": "9 +/− 3%"}
    ]}
  ]
}
